Assay results as given in DBAASP.
≈ marks a conversion by molar mass, not a printed value. Where “and” joins values, the source holds several entries; their conditions need not be identical. Identical values can stand only once. One block for each molecule: values may come before it.

Assays:
Test in all cases: ≥ marks a high value that may be exact or a test limit, other limits are often not marked, values filed in µg/mL are converted to µM
[1] = system: Escherichia coli DH5alpha
[2] = system: Bacillus subtilis ATCC 6633
[3] = system: Staphylococcus aureus ATCC 9144
[4] = system: Escherichia coli ATCC 10536
[5] = system: Salmonella enterica serovar Typhimurium
Candida albicans = system: Candida albicans
[6] = system: Staphylococcus aureus ATCC 25923
[7] = system: Pseudomonas aeruginosa H103
[8] = system: Staphylococcus epidermidis
Escherichia coli UB1005 = system: Escherichia coli UB1005
[9] = system: Enterococcus faecalis ATCC 29212
[10] = system: Staphylococcus aureus USA 300
Escherichia coli K-12 = system: Escherichia coli K-12
[11] = system: Klebsiella pneumoniae ATCC 13883
[12] = system: Escherichia coli ATCC 25922
[13] = system: Pseudomonas aeruginosa PAO1
[14] = system: Cronobacter sakazakii DPC 6440
[15] = system: Listeria monocytogenes LO28
Escherichia coli = system: Escherichia coli
Salmonella typhimurium = system: Salmonella typhimurium
Proteus mirabilis = system: Proteus mirabilis
Bacillus subtilis = system: Bacillus subtilis
Shigella dysenteriae = system: Shigella dysenteriae
Klebsiella pneumoniae = system: Klebsiella pneumoniae
Micrococcus luteus = system: Micrococcus luteus
Staphylococcus aureus = system: Staphylococcus aureus
Pseudomonas aeruginosa = system: Pseudomonas aeruginosa

SMILES: NCCCC[C@H](NC(=O)[C@H](CCCN=C(N)N)NC(=O)[C@H](CCCN=C(N)N)NC(=O)[C@H](Cc1c[nH]c2ccccc12)NC(=O)[C@@H](N)CCCN=C(N)N)C(=O)N[C@@H](Cc1c[nH]c2ccccc12)C(=O)N[C@@H](Cc1c[nH]c2ccccc12)C(=O)N[C@@H](Cc1c[nH]c2ccccc12)C(=O)N[C@@H](Cc1c[nH]c2ccccc12)C(=O)O [RWRRKWWWW]
MIC [5]: 2.8 µM (≈ 4.33 µg/mL)
MIC (Candida albicans): 5.6 µM (≈ 8.66 µg/mL)
MIC [6]: 0.7 µM (≈ 1.08 µg/mL)
MIC [7]: 11.2 µM (≈ 17.3 µg/mL)
MIC [8]: 0.7 µM (≈ 1.08 µg/mL)
MIC [9]: 2.8 µM (≈ 4.33 µg/mL)
MIC (Escherichia coli UB1005): 1.4 µM (≈ 2.16 µg/mL)

SMILES: CC(C)[C@H](NC(=O)[C@H](CO)NC(=O)[C@H](Cc1cnc[nH]1)NC(=O)[C@H](Cc1ccccc1)NC(=O)[C@H](C)NC(=O)[C@H](CCCCN)NC(=O)CNC(=O)[C@H](Cc1ccccc1)NC(=O)CN)C(=O)N[C@@H](CO)C(=O)N[C@@H](CC(N)=O)C(=O)N[C@@H](Cc1ccccc1)C(=O)N[C@@H](C)C(=O)N[C@@H](CCCCN)C(=O)N[C@@H](CCCCN)C(=O)N[C@@H](Cc1cnc[nH]1)C(=O)N[C@@H](CCCCN)C(=O)N[C@H](C(=O)N[C@@H](C)C(N)=O)[C@@H](C)O [GFGKAFHSVSNFAKKHKTA]
MIC [10]: ≥ 100 µM
MIC (Escherichia coli K-12): ≥ 100 µM

SMILES: CC(C)C[C@H](NC(=O)[C@H](CC(C)C)NC(=O)[C@H](CCCCN)NC(=O)[C@H](CC(C)C)NC(=O)CNC(=O)[C@H](CC(C)C)NC(=O)[C@H](CCCCN)NC(=O)[C@H](CC(C)C)NC(=O)[C@H](CC(C)C)NC(=O)[C@H](CC(C)C)NC(=O)[C@H](CO)NC(=O)[C@H](CC(C)C)NC(=O)CN)C(N)=O [GLSLLLKLGLKLL]
MIC [11]: 25 µM (≈ 34.5 µg/mL)
MIC [12]: > 25 µM
MIC [13]: > 25 µM
MIC [10]: 1.13 µM (≈ 1.56 µg/mL)

SMILES: CC[C@H](C)[C@H](NC(=O)[C@@H]1CCCN1C(=O)[C@@H]1CCCN1C(=O)[C@H](CO)NC(=O)[C@@H](NC(=O)[C@H](CCCCN)NC(=O)[C@H](CCCCN)NC(=O)[C@H](Cc1ccccc1)NC(=O)[C@H](CC(C)C)NC(=O)[C@H](CCCCN)NC(=O)[C@H](CCCCN)NC(=O)CNC(=O)[C@H](CCCCN)NC(=O)[C@H](CCCCN)NC(=O)[C@H](CCCN=C(N)N)NC(=O)[C@H](Cc1ccccc1)NC(=O)[C@H](CCCN=C(N)N)NC(=O)[C@H](CCCCN)NC(=O)[C@H](Cc1ccccc1)NC(=O)[C@H](CCCN=C(N)N)NC(=O)[C@@H](N)Cc1ccccc1)C(C)C)C(=O)N[C@@H](CC(C)C)C(=O)N[C@@H](CC(C)C)C(=O)N[C@@H](CC(C)C)C(=O)N[C@@H](Cc1cnc[nH]1)C(=O)N[C@@H](CC(C)C)C(N)=O [FRFKRFRKKGKKLFKKVSPPILLLHL]
MIC [1]: 3.1 µM (≈ 10 µg/mL)
MIC [3]: 3.2 µM (≈ 10.3 µg/mL)
MIC [4]: 3.3 µM and 8.1 µM

SMILES: CC(C)C[C@H](NC(=O)[C@H](C)NC(=O)CNC(=O)[C@H](CC(C)C)NC(=O)[C@@H](N)Cc1ccccc1)C(=O)N[C@@H](Cc1ccccc1)C(=O)N[C@@H](CCCCN)C(=O)N[C@@H](Cc1ccccc1)C(=O)N[C@@H](C)C(=O)N[C@@H](CO)C(=O)N[C@@H](CCCCN)C(=O)O [FLGALFKFASK]
MIC (Escherichia coli): 81.4 µM (≈ 100 µg/mL)
MIC (Salmonella typhimurium): ≥ 163 µM
MIC (Proteus mirabilis): ≥ 163 µM
MIC (Bacillus subtilis): 20.4 µM (≈ 25 µg/mL)
MIC (Shigella dysenteriae): ≥ 81.4 µM
MIC (Klebsiella pneumoniae): 81.4 µM (≈ 100 µg/mL)
MIC (Micrococcus luteus): 20.4 µM (≈ 25 µg/mL)
MIC [8]: ≥ 81.4 µM
MIC (Staphylococcus aureus): 40.7 µM (≈ 50 µg/mL)
MIC (Pseudomonas aeruginosa): > 163 µM

Results, then the molecule that gave them:

MIC [1]: 4.2 µM (≈ 11.6 µg/mL)
MIC [2]: 6 µM (≈ 16.6 µg/mL)
MIC [3]: 4 µM (≈ 11 µg/mL)
MIC [4]: 3.3 µM (≈ 9.12 µg/mL)
SMILES: CC[C@H](C)[C@H](NC(=O)CN)C(=O)NCC(=O)N[C@@H](C)C(=O)N[C@H](C(=O)N[C@@H](CC(C)C)C(=O)N[C@@H](CCCCN)C(=O)N[C@H](C(=O)N[C@@H](C)C(=O)N[C@H](C(=O)N[C@H](C(=O)NCC(=O)N[C@@H](CC(C)C)C(=O)N1CCC[C@H]1C(=O)N[C@@H](C)C(=O)N[C@@H](C)C(=O)N[C@H](C(=O)N[C@@H](CO)C(=O)N[C@@H](Cc1c[nH]c2ccccc12)C(=O)N[C@H](C(=O)N[C@@H](CCCCN)C(=O)N[C@@H](CCCN=C(N)N)C(=O)N[C@@H](CCCCN)C(=O)N[C@@H](CCCN=C(N)N)C(=O)N[C@@H](CCC(N)=O)C(=O)N[C@@H](CCC(N)=O)C(N)=O)[C@@H](C)CC)[C@@H](C)CC)[C@@H](C)O)[C@@H](C)O)C(C)C)C(C)C [GIGAVLKVATTGLPAAISWIKRKRQQ]

MIC [5]: 3.75 µM (≈ 6 µg/mL)
MIC (Candida albicans): 3.75 µM (≈ 6 µg/mL)
MIC [6]: 7.5 µM (≈ 12 µg/mL)
MIC [7]: 3.75 µM (≈ 6 µg/mL)
MIC [8]: 1 µM (≈ 1.6 µg/mL)
MIC (Escherichia coli UB1005): 1.88 µM (≈ 3 µg/mL)
SMILES: CC[C@H](C)[C@H](NC(=O)[C@H](CCCN=C(N)N)NC(=O)[C@H](Cc1ccccc1)NC(=O)[C@H](CCC(N)=O)NC(=O)[C@@H](N)CCCCN)C(=O)N[C@@H](CCCN=C(N)N)C(=O)N[C@H](C(=O)N[C@@H](CCCN=C(N)N)C(=O)N[C@H](C(=O)N[C@H](C(=O)N[C@@H](CCCN=C(N)N)C(=O)N[C@@H](CCCCN)C(N)=O)[C@@H](C)CC)C(C)C)C(C)C [KQFRIRVRVIRK]

MIC [1]: 2.5 µM (≈ 7.58 µg/mL)
MIC [2]: 1.2 µM (≈ 3.64 µg/mL)
MIC [3]: 3.1 µM (≈ 9.4 µg/mL)
MIC [4]: 2.2 µM (≈ 6.67 µg/mL)
SMILES: CC[C@H](C)[C@H](NC(=O)[C@H](CCCN=C(N)N)NC(=O)[C@@H](NC(=O)[C@@H](NC(=O)[C@@H]1CCCN1C(=O)[C@@H](NC(=O)[C@@H](NC(=O)[C@@H](NC(=O)[C@@H]1CCCN1C(=O)CNC(=O)[C@H](Cc1ccc(O)cc1)NC(=O)[C@H](CCCCN)NC(=O)[C@H](CCCCN)NC(=O)[C@H](Cc1c[nH]c2ccccc12)NC(=O)[C@H](C)NC(=O)[C@H](CCCN=C(N)N)NC(=O)[C@H](CC(C)C)NC(=O)[C@@H](NC(=O)[C@H](CCCCN)NC(=O)[C@H](CCCN=C(N)N)NC(=O)CNC(=O)[C@H](CC(C)C)NC(=O)[C@H](CO)NC(=O)[C@H](CCCN=C(N)N)NC(=O)[C@H](C)NC(=O)CNC(=O)CN)[C@@H](C)CC)[C@@H](C)CC)[C@@H](C)CC)C(C)C)[C@@H](C)CC)[C@@H](C)CC)C(N)=O [GGARSLGRKILRAWKKYGPIIVPIIRI]

MIC [5]: ≥ 176 µM
MIC (Candida albicans): > 176 µM
MIC [6]: > 176 µM
MIC [7]: ≥ 176 µM
MIC [8]: ≥ 176 µM
MIC [9]: > 176 µM
MIC (Escherichia coli UB1005): ≥ 176 µM
SMILES: CC[C@H](C)[C@H](NC(=O)[C@H](CCCN=C(N)N)NC(=O)[C@H](C)NC(=O)[C@H](CC(C)C)NC(=O)[C@@H](N)CCCN=C(N)N)C(=O)N[C@H](C(=O)N1CCC[C@H]1C(=O)N[C@H](C(=O)N[C@@H](CCCN=C(N)N)C(=O)N[C@H](C(=O)N[C@@H](C)C(=O)N[C@@H](CCCN=C(N)N)C(=O)O)C(C)C)[C@@H](C)CC)C(C)C [RLARIVPIRVAR]

MIC [14]: ≥ 78.1 µM
MIC [15]: ≥ 39.1 µM
SMILES: CC[C@H](C)[C@H](NC(=O)[C@@H](N)Cc1c[nH]c2ccccc12)C(=O)N[C@@H](CCC(N)=O)C(=O)N1CCC[C@H]1C(=O)N[C@@H](CCCCN)C(=O)N[C@H](C(=O)N[C@@H](CCCCN)C(=O)N[C@H](C(=O)N[C@H](C(=O)N1CCC[C@H]1C(=O)N[C@@H](Cc1ccc(O)cc1)C(=O)N[C@H](C(=O)N[C@@H](CCCN=C(N)N)C(=O)N[C@@H](Cc1ccc(O)cc1)C(=O)N[C@@H](C)C(=O)O)C(C)C)[C@@H](C)CC)C(C)C)[C@@H](C)O [WIQPKTKVIPYVRYA]

MIC [14]: ≥ 1250 µM
MIC [15]: ≥ 156 µM
SMILES: CC[C@H](C)[C@H](NC(=O)[C@H](Cc1c[nH]c2ccccc12)NC(=O)[C@@H]1CCCN1C(=O)[C@H](CCCCN)NC(=O)[C@H](CCSC)NC(=O)[C@H](C)NC(=O)[C@@H](N)CCCCN)C(=O)N[C@@H](CCC(N)=O)C(=O)N1CCC[C@H]1C(=O)N[C@@H](CCCCN)C(=O)N[C@H](C(=O)N[C@@H](CCCCN)C(=O)N[C@H](C(=O)N[C@H](C(=O)N1CCC[C@H]1C(=O)O)[C@@H](C)CC)C(C)C)[C@@H](C)O [KAMKPWIQPKTKVIP]
